This passage reports IC50 and EC50 results from patent publication US11458138B2 (Novartis AG, priority 2017, dated 2022).

Molecules are shown by their SMILES.

By IC50 is commonly meant the concentration that gives 50% inhibition. By EC50 is commonly meant the concentration that produces a half-maximal response. Low values mean a more potent agent, high ones a less potent agent.

In one assay the target is LATS1 (Homo sapiens (Human), UniProt O95835). As to the kind of experiment: LATS1 biochemical assay (Table 1A, Compound Examples 1-290; method in the earlier part).
Assay [1] has as its system YAP nuclear translocation in HaCaT cells. As to the kind of experiment: YAP Translocation Assay (HaCaT Cells). It is filed as cell-based, human. Particulars: Homo sapiens, 24 hours. The procedure: HaCaT cells were suspended at 0.4×10^6 cells/ml in DMEM+10% FBS with penicillin-streptomycin-glutamine. 50 μl of cells were dispensed into 384-well clear bottom assay plates (20,000 cells/well), and incubated overnight at 37° C. 100 nL test compound was transferred into the assay wells containing HaCaT cells using ECHO (Labcyte). After 24 hours incubation at 37° C., 7 μL of 32% PFA was dispensed into each well and incubated for 45 minutes at room temperature. Plates were washed 3 times with PBS, leaving 20 μL of PBS per well, then treated with 0.1% Triton and 1.5% BSA in PBS for 45 minutes at room temperature. Plates were washed for 5 times with PBS, leaving 20 μL of PBS per well. […] Plates were further washed 3 time with PBS, sealed and imaged on the high-content Opera imaging system (PerkinElmer).

LATS1, sequence (O95835 whole entry, looked up): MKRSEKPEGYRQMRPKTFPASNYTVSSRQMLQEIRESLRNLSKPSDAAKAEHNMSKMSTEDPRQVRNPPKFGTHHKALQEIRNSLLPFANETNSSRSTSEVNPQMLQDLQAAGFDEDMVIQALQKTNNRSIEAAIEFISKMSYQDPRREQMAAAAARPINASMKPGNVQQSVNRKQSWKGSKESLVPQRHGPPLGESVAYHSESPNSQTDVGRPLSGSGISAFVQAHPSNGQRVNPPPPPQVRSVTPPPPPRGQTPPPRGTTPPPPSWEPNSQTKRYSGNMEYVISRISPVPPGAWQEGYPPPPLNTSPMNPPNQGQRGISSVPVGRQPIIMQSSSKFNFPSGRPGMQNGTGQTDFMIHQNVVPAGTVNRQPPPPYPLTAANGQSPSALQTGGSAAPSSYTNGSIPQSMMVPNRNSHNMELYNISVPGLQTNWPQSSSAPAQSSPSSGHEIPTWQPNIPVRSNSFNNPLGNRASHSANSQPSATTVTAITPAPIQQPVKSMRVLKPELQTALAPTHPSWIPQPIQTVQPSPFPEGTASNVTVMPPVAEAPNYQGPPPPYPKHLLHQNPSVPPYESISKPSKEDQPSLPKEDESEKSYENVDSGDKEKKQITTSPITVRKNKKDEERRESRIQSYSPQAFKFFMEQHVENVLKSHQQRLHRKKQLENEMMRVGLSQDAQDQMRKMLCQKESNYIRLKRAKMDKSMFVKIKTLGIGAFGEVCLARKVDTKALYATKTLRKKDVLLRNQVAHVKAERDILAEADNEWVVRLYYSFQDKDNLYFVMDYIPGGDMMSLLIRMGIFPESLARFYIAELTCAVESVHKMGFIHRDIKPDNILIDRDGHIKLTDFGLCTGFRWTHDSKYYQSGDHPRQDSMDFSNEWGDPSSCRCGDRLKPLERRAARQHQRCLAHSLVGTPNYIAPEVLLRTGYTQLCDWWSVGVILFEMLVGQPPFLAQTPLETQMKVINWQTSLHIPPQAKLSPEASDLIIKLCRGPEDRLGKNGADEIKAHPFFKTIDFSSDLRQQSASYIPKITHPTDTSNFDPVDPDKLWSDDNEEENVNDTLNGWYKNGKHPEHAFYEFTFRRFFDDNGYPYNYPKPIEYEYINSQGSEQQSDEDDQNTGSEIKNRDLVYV
LATS1, sequence (Q7L9L4 whole entry partner, looked up): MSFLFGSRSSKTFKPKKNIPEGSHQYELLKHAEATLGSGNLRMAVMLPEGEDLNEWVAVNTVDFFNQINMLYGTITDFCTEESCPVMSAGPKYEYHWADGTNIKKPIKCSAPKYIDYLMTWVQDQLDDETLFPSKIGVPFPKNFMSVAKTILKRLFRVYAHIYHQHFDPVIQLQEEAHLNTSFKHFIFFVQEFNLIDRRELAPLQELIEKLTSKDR

Compound `CC(C)(CCO)Nc1cc(-c2ccncc2)nc2cnccc12` [Example 260, 3-methyl-3-{[2-(pyridin-4-yl)-1,7-naphthyridin-4-yl]amino}butan-1-ol] displayed an IC50 at LATS1 of 459 nM. This compound showed a concentration giving a half-maximal response (EC50) in assay [1] greater than 20000 nM. On LATS1, `CC(C)(CN)Nc1nc(-c2cn[nH]c2)nc2cnccc12` [Example 197, N-(1-amino-2-methylpropan-2-yl)-2-(1H-pyrazol-4-yl)pyrido[3,4-d]pyrimidin-4-amine] came in with an IC50 of 23 nM. In turn, `CC(C)S(=O)(=O)Nc1nc(-c2ccncc2)nc2cnccc12` [Example 45, N-[2-(pyridin-4-yl)pyrido[3,4-d]pyrimidin-4-yl]propane-2-sulfonamide] displayed an IC50 against LATS1 greater than 2500 nM. Besides, the 50% effective concentration (EC50) in assay [1] was greater than 20000 nM. Taken in the same sequence, the figures for `CN(c1nc(-c2cn[nH]c2)nc2cnccc12)C1(C)CC1` [Example 171, N-methyl-N-(1-methylcyclopropyl)-2-(1H-pyrazol-4-yl)pyrido[3,4-d]pyrimidin-4-amine] were 54 nM and 17200 nM. On LATS1, `Clc1cnccc1-c1nc(NC2CCCC2)c2ccncc2n1` [Example 126, 2-(3-chloropyridin-4-yl)-N-cyclopentylpyrido[3,4-d]pyrimidin-4-amine] came in with an IC50 of 53 nM. This compound also returned an EC50 in assay [1] greater than 20000 nM.

In the case of `CC1(C)CC(O)CCN1c1cc(-c2ccncc2)nc2cnccc12` (centres unmarked) [Example 262, 2,2-dimethyl-1-[2-(pyridin-4-yl)-1,7-naphthyridin-4-yl]piperidin-4-ol], the IC50 against LATS1 was 3 nM. In addition, a half-maximal response in assay [1] (EC50) required 311 nM. Take `CC1(Nc2nc(-c3ccnc(C(F)(F)F)c3)nc3cnccc23)CC1` [Example 150, N-(1-methylcyclopropyl)-2-[2-(trifluoromethyl)pyridin-4-yl]pyrido[3,4-d]pyrimidin-4-amine]: half-maximal inhibition against LATS1 (IC50) was put at 4270 nM.

Take `CC(C)(C)Nc1nc(-c2cc(Cl)ncc2C(F)(F)F)nc2cnccc12` [Example 131, N-tert-butyl-2-[2-chloro-5-(trifluoromethyl)pyridin-4-yl]pyrido[3,4-d]pyrimidin-4-amine]: the IC50 against LATS1 was greater than 833 nM. The compound also returned an EC50 in assay [1] greater than 20000 nM. Taken in the same sequence, the figures for `Cn1cncc1-c1nc(NC2(C)CC2)c2ccncc2n1` [Example 178, 2-(1-methyl-1H-imidazol-5-yl)-N-(1-methylcyclopropyl)pyrido[3,4-d]pyrimidin-4-amine] were greater than 2500 nM and greater than 20000 nM.

Turning to `CC(C)(C)Nc1nc(-c2ccncc2C(F)(F)F)nc2cnccc12` [Example 130, N-tert-butyl-2-[3-(trifluoromethyl)pyridin-4-yl]pyrido[3,4-d]pyrimidin-4-amine], the half-maximal inhibitory concentration (IC50) at LATS1 was determined as 1150 nM. In assay [1], this compound registered an EC50 greater than 20000 nM. Taken in the same sequence, the figures for `CC(C)N(C)c1cc(-c2ccncc2F)nc2cnccc12` [Example 277, 2-(3-fluoropyridin-4-yl)-N-methyl-N-(propan-2-yl)-1,7-naphthyridin-4-amine] were 65 nM and greater than 20000 nM. As to `CCCNc1nc(-c2c[nH]nc2C2CC2)nc2cnccc12` [Example 163, 2-(3-cyclopropyl-1H-pyrazol-4-yl)-N-propylpyrido[3,4-d]pyrimidin-4-amine], at LATS1, the half-inhibitory concentration (IC50) is 51 nM. The EC50 in assay [1] was greater than 20000 nM. Taken in the same sequence, the figures for `CCCNc1nc(-c2ccncc2Cl)nc2cnccc12` [Example 162, 2-(3-chloropyridin-4-yl)-N-propylpyrido[3,4-d]pyrimidin-4-amine] were 49 nM and greater than 20000 nM.

In the case of `CC(C)(Nc1nc(-c2ccncc2)nc2cnccc12)C12CC3CC(CC(C3)C1)C2` [Example 42, N-[2-(adamantan-1-yl)propan-2-yl]-2-(pyridin-4-yl)pyrido[3,4-d]pyrimidin-4-amine], the IC50 on LATS1 came out at 711 nM. In assay [1], this compound showed a concentration giving a half-maximal response (EC50) of 11600 nM. Consider `c1ccc(Nc2nc(-c3ccncc3)nc3cnccc23)cc1` [Example 92, N-phenyl-2-(pyridin-4-yl)pyrido[3,4-d]pyrimidin-4-amine], for which half-maximal inhibition against LATS1 (IC50) required 304 nM. The same compound yielded a 50% effective concentration (EC50) in assay [1] greater than 20000 nM. As for `COC(=O)CC1(Nc2nc(-c3ccncc3)nc3cnccc23)CC1` [Example 102, methyl 2-(1-{[2-(pyridin-4-yl)pyrido[3,4-d]pyrimidin-4-yl]amino}cyclopropyl)acetate], the concentration for half-maximal inhibition (IC50) against LATS1 was 126 nM. As to `CC1(Nc2nc(-c3ccncc3)nc3cnccc23)CCC1` [Example 60, N-(1-methylcyclobutyl)-2-(pyridin-4-yl)pyrido[3,4-d]pyrimidin-4-amine], on LATS1, inhibition was half-maximal at 1 nM (IC50). The compound also displayed an EC50 in assay [1] of 440 nM. `CCN(CC)c1cc(-c2ccncc2Cl)nc2cnccc12` [Example 286, 2-(3-chloropyridin-4-yl)-N,N-diethyl-1,7-naphthyridin-4-amine] returned an IC50 at LATS1 of 560 nM. Also, in assay [1], the EC50 was greater than 20000 nM.

Take `Cc1n[nH]cc1-c1nc(NC(C)c2ccncc2)c2ccncc2n1` (centres unmarked) [Example 190, 2-(3-methyl-1H-pyrazol-4-yl)-N-[1-(pyridin-4-yl)ethyl]pyrido[3,4-d]pyrimidin-4-amine]: half-maximal inhibition on LATS1 (IC50) required 99 nM. In assay [1], this compound came in with a concentration giving a half-maximal response (EC50) greater than 20000 nM. `CCCNc1nc(-c2cn(C)c3ncccc23)nc2cnccc12` [Example 165, 2-{1-methyl-1H-pyrrolo[2,3-b]pyridin-3-yl}-N-propylpyrido[3,4-d]pyrimidin-4-amine] registered a 50% inhibitory concentration (IC50) on LATS1 greater than 2500 nM. The compound also came in with a concentration for a half-maximal effect (EC50) in assay [1] greater than 20000 nM. On LATS1, `Fc1ccc(Nc2nc(-c3ccncc3)nc3cnccc23)cc1` [Example 96, N-(4-fluorophenyl)-2-(pyridin-4-yl)pyrido[3,4-d]pyrimidin-4-amine] showed an IC50 greater than 1700 nM. Further, the 50% effective concentration (EC50) in assay [1] was greater than 20000 nM. On LATS1, `CCn1nccc1-c1nc(NC2(C)CC2)c2ccncc2n1` [Example 173, 2-(1-ethyl-1H-pyrazol-5-yl)-N-(1-methylcyclopropyl)pyrido[3,4-d]pyrimidin-4-amine] yielded an IC50 of 61 nM. For the same compound, the concentration giving a half-maximal response (EC50) in assay [1] is greater than 20000 nM. With `Clc1cnccc1-c1nc(NCCCc2nnn[nH]2)c2ccncc2n1` [Example 132, 2-(3-chloropyridin-4-yl)-N-[3-(1H-1,2,3,4-tetrazol-5-yl)propyl]pyrido[3,4-d]pyrimidin-4-amine], the IC50 on LATS1 was greater than 2500 nM. Further, the EC50 in assay [1] is greater than 20000 nM. Taken in the same sequence, the figures for `CC1(Nc2nc(-c3nn[nH]n3)nc3cnccc23)CC1` [Example 182, N-(1-methylcyclopropyl)-2-(2H-1,2,3,4-tetrazol-5-yl)pyrido[3,4-d]pyrimidin-4-amine] were greater than 10000 nM and greater than 20000 nM. In the case of `CC(C)N(C)c1cc(-c2ccncc2)nc2cnccc12` [Example 259, N-methyl-N-(propan-2-yl)-2-(pyridin-4-yl)-1,7-naphthyridin-4-amine], on LATS1, the IC50 turned out to be 61 nM. This compound came in with an EC50 in assay [1] of 17300 nM. Taken in the same sequence, the figures for `Cc1cccc(Nc2nc(-c3ccncc3)nc3cnccc23)c1` [Example 93, N-(3-methylphenyl)-2-(pyridin-4-yl)pyrido[3,4-d]pyrimidin-4-amine] were 809 nM and greater than 20000 nM. Taken in the same sequence, the figures for `CC(C)(CCS(C)(=O)=O)Nc1nc(-c2ccncc2Cl)nc2cnccc12` [Example 129, 2-(3-chloropyridin-4-yl)-N-(4-methanesulfonyl-2-methylbutan-2-yl)pyrido[3,4-d]pyrimidin-4-amine] were 187 nM and greater than 20000 nM. Taken in the same sequence, the figures for `CC(C)(Nc1nc(-c2ccncc2)nc2cnccc12)C(=O)O` [Example 34, 2-methyl-2-{[2-(pyridin-4-yl)pyrido[3,4-d]pyrimidin-4-yl]amino}propanoic acid] were 95 nM and greater than 20000 nM. In the case of `CC1(Nc2nc(-c3cnc[nH]3)nc3cnccc23)CC1` [Example 177, 2-(1H-imidazol-5-yl)-N-(1-methylcyclopropyl)pyrido[3,4-d]pyrimidin-4-amine], the IC50 against LATS1 was greater than 2500 nM. Also, in assay [1], the concentration giving a half-maximal response (EC50) is greater than 20000 nM.

As to `CN(c1nc(-c2ccnn2C)nc2cnccc12)C1(C)CC1` [Example 169, N-methyl-2-(1-methyl-1H-pyrazol-5-yl)-N-(1-methylcyclopropyl)pyrido[3,4-d]pyrimidin-4-amine], 98 nM corresponded to half-maximal inhibition at LATS1 (IC50). On the same count and under the same terms, in the case of `CCn1cc(-c2nc(NCC(C)C)c3ccncc3n2)cn1` [Example 195, 2-(1-ethyl-1H-pyrazol-4-yl)-N-(2-methylpropyl)pyrido[3,4-d]pyrimidin-4-amine] it was greater than 10000 nM; in that of `CC(Nc1nc(-c2ccnn2C)nc2cnccc12)c1ccncc1` (centres unmarked) [Example 193, 2-(1-methyl-1H-pyrazol-5-yl)-N-[1-(pyridin-4-yl)ethyl]pyrido[3,4-d]pyrimidin-4-amine], greater than 10000 nM; in that of `CC(Nc1nc(-c2ccncc2)nc2cnccc12)c1ccccc1` (centres unmarked) [Example 98, N-(1-phenylethyl)-2-(pyridin-4-yl)pyrido[3,4-d]pyrimidin-4-amine], 1350 nM.

At LATS1, `OCC1(Nc2nc(-c3cn[nH]c3)nc3cnccc23)CCC1` [Example 191, (1-{[2-(1H-pyrazol-4-yl)pyrido[3,4-d]pyrimidin-4-yl]amino}cyclobutyl)methanol] gave an IC50 of 189 nM. The same measure, in the same setting: in the case of `CC1(Nc2nc(-c3ccnc(C#N)c3)nc3cnccc23)CC1` [Example 151, 4-{4-[(1-methylcyclopropyl)amino]pyrido[3,4-d]pyrimidin-2-yl}pyridine-2-carbonitrile] it was greater than 10000 nM. In assay [1], `O=C(O)CCCNc1nc(-c2ccncc2)nc2cnccc12` [Example 97, 4-{[2-(pyridin-4-yl)pyrido[3,4-d]pyrimidin-4-yl]amino}butanoic acid] showed an EC50 greater than 20000 nM.
